# Data as given in patent publication US8207211B2, “Photosensitizers for targeted photodynamic therapy” (The General Hospital Corporation, priority 2005, dated 2012).
# Assays:
# [1] = system: P. aeruginosa; assay: Photodynamic inactivation (PDI), CFU survival, white light (red light for TBO); assay type: cell-based, Pseudomonas aeruginosa; details: 10 μM; for PDT activity against P. aeruginosa: white light up to 50 J/cm^2
# Protocol: (§1) Staphylococcus aureus (ATCC #35556), Escherichia coli (ATCC #25922), and Pseudomonas aeruginosa (ATCC #BAA-47; PAO1) were cultured in brain-heart infusion (BHI) broth (Difco, BD Diagnosttic Systems, Sparks, Md.) at 37° C. in aerobic conditions in a shaker at 150 rpm. Candida albicans (ATCC #18804) is grown in YM broth (Difco). Exponential cultures obtained by reculturing stationary overnight precultures were used for experiments.
# (§2) E. coli, P. aeruginosa, and S. aureus are grown in fresh medium for approximately 1 hr to a density of about 10^8 cells/ml; the OD values at 650 nm are 0.6, 0.8, and 0.8, respectively. C. albicans is grown for approximately 4 hr to an approximate density of 10^8 cells/ml, corresponding to an OD of 6 at 650 nm (measured at 10-fold dilution). Cells were used for experiments in the mid-log growth phase.
# (§3) A noncoherent lamp with filtered liquid light guides, e.g., a LumaCare™ LC122 lamp (MBG Technologies, Inc., Newport Beach, Calif.) was used to provide illumination of PS. More specifically, for illumination of fullerenes, a broad-band white light band pass filter (400-700 nm) was used, whereas for TBO, a band pass filter at 620-650 nm was used. The lamp was adjusted to give a uniform spot of about 4 cm diameter with an irradiance of 200 mW/cm^2, as measured with a power meter, e.g., a model DMM 199 meter with 201 Standard head (Coherent, Santa Clara, Calif.).
# (§4) Typically, derivatized fullerenes prepared as described above are dissolved in DMSO to provide stock solutions having final concentrations of about 5 mM. […] All stock solutions were stored in the dark at room temperature.
# (§5) In some experiments, for example in studies described in Examples below, suspensions of S. aureus cells (10^8 per ml) were incubated with derivatized fullerenes such as NI-1-3 and CI1-3 at a concentration of 100 μM in PBS at room temperature for 10 min. In other experiments, the bacterial suspension was centrifuged (4000×g for 10 min) after incubation and resuspended in fresh PBS before illumination; the latter procedure was referred to herein as a “wash.” E. coli, P. aeruginosa, and C. albicans were used at concentrations of about 10^8 cells per ml.
# (§6) Illumination was carried out from above on microbial cell suspensions in wells of a 24-well plate. Aliquots were removed at times corresponding to the delivery of calculated fluences of light, and were serially diluted in PBS and streaked on square BHI or YM agar plates according to the method of Jett et al. (Jett, B. D., Hatter, K. L., Huycke, M. M., and Gilmore, M. S. (1997). Simplified agar plate method for quantifying viable bacteria. Biotechniques 23, 648-650). Survival fractions were calculated with reference to cells incubated in PBS alone. Values on killing curves at 0 J/cm^2 represent the dark toxicity of the fullerenes or other PS tested. Control cells were treated with light and no PS and also analyzed for viability.
# [2] = system: C. albicans; assay: as above; assay type: cell-based, Candida albicans; details: 10 μM; for PDT activity against C. albicans: white light up to 50 J/cm^2
# Protocol: as §1, §2, §3, §4, §5, §6
# [3] = Solubility in DMSO stock solution; assay type: physicochemical; details: lower stock concentration used than for the other fullerenes
# Protocol: as §4
# Six fullerene derivatives (NI1-3 and CI1-3) were evaluated. […] Concentration of fullerene derivatives used in the experiments varied between 1 and 100 μM.
# [4] = Octanol-water distribution coefficient; assay type: physicochemical; details: 1-octanol/DI water, absorbance at 330 nm
# Protocol: Each compound was dissolved in a minimum amount of DMSO: CI1 (0.9 mg in 200 μl), CI2 (5.3 mg in 200 μl), CI3 (5.4 mg in 200 μl). Ten ml of DI water and 10 ml of 1-octanol were added in each compound and vigorously shaken for 2 min. and the vials of the compounds were settled down overnight. The phases were separated and UV-spectra of each phase were analyzed. Distribution coefficient of each compound was determined using absorbance of aqueous phases and organic phases at 330 nm.
# [5] = system: E. coli; assay: Photodynamic inactivation (PDI), CFU survival, white light (red light for TBO); assay type: cell-based, Escherichia coli; details: 10 μM; for change of E. coli killing in the presence of serum versus no serum: white light; for PDT activity against E. coli: white light up to 50 J/cm^2
# Protocol: as §1, §2, §3, §4, §5, §6
# [6] = system: S. aureus; assay: as above; assay type: cell-based, Staphylococcus aureus; details: for PDT activity against S. aureus: 10 min, white light up to 50 J/cm^2
# [7] = system: S. aureus; assay: as above; assay type: cell-based, Staphylococcus aureus
# Protocol: as §1, §2
# as §3, with “More specifically, for illumination of fullerenes, a broad-band white light band pass filter (400-700 nm) was used, whereas for TBO, a band pass filter at 620-650 nm was used.” left out, “Calif.). […]” for “Calif.).”
# Illumination was carried out from above on microbial cell suspensions in wells of a 24-well plate. […] Survival fractions were calculated with reference to cells incubated in PBS alone. […]
# [8] = system: L929 murine fibroblast line; assay: Mammalian cell toxicity, MTT viability assay after illumination; assay type: cell-based, mouse; details: 10 μM, 10 min; for toxicity to L929 mammalian cells at fluences used for PDI of pathogens: white light up to 50 J/cm^2
# Source text: Experiments to test the effect of functionalized fullerenes on mammalian cells can be performed in a suitable mammalian cell line. One such cell line is the L929 murine fibroblast line (ATCC #CCL1), a spontaneously transformed immortalized cell line established from the normal subcutaneous areolar and adipose tissue of a male C3H/An mouse (Earle, W. R., Schilling, E. L., Stark, T. H., Straus, N. P., Brown, M. F., and Shelton, E. (1943). Production of malignancy in vitro. IV. The mouse fibroblast cultures and changes seen in the living cells. J. Natl. Cancer Inst. 4, 165-212). In a suitable assay, these cells were cultured in Dulbecco's modified Eagle's medium (Sigma) at 37° C. in a humidified atmosphere containing 5% CO2. The medium is preferably modified by using 4 mM L-glutamine (containing 1.5 g/l sodium bicarbonate and 4.5 g/l glucose), 10% fetal bovine serum (FBS), 100 U/ml penicillin, and […] streptomycin. Cells were plated in 96-well cell culture plates, at a density of about 300 cells/well, and are allowed to attach for 24 hr.
# Fullerenes and other PS, e.g., TBO, were added at a concentration of about 10 μM in 200 μl complete medium per well. After 10 min, fresh medium is added, and the cultures were illuminated with white light (for fullerenes) or with red light (for TBO). At the completion of the illumination period, cells were returned to the incubator for 24 hr. Cell viability can be determined, for example, by using the MTT-microculture tetrazolium assay, a method of assessing cellular response to PDT (Merlin, J. L., Azzi, S., Lignon, D., Ramacci, C., Zeghari, N., and Guillemin, F. (1992). MTT assays allow quick and reliable measurement of the response of human tumour cells to photodynamic therapy. Eur. J. Cancer 28A, 1452-1458. This assay involves the reduction of a colorless substrate, i.e., 3-[4,5-Dimethylthiazol-2-yl]-diphenyltetrazolium bromide (Sigma, St. Louis, […].) to an insoluble dark-blue formazan product which is formed in proportion to the amount of succinate dehydrogenase activity in the mitochondria of living cells. After incubation with MTT for periods ranging from 4 to 8 hr, the medium was aspirated from each well, and […] DMSO is added. The absorbance at 570 nm was read by a microplate reader, e.g., a Spectra Max™ 340 PC (Molecular Devices, Sunnyvale, Calif.). The fraction of cells surviving was calculated by dividing the mean absorbances of formazan produced from PDT-treated cells by the mean absorbances from dark controls incubated with PS and kept at room temperature for periods of time equal to the irradiation times.
# [9] = 10 min incubation, up to 16 J/cm2 of red light
# [10] = same fluence as for the fullerenes, presence or absence of serum
compound,measurement,setting,value
C[N+]1(C)CC2c3c4ccc5c6ccc7c8ccc9c%10ccc%11c(c%12c3c3c4c5c4c6c7c5c8c9c6c%10c%11c%12c7c3c4c5c67)C2C1 (stereo not drawn) [CI1],PDT activity against P. aeruginosa,[1]; 10 min,effectively killed
same,killing of P. aeruginosa,"[1]; 10 min, with a wash, white light up to 16 J/cm^2",2 logs
same,PDT activity against C. albicans,[2]; 10 min,effectively killed
same,solubility in DMSO (stock solution),[3],poorly soluble
same,Kow (octanol-water partition constant),[4],140.80
same,LogKow,[4],2.15
same,change of E. coli killing in the presence of serum versus no serum,"[5]; 10 min, 10% FBS, with a wash",unchanged
same,PDT activity against E. coli,[5]; 10 min,effectively killed
same,killing of E. coli,"[5]; with a wash, 8 J/cm^2 white light",3 logs
same,PDT activity against S. aureus,[6]; 1 μM,effectively killed
same,dark toxicity to S. aureus,"[6]; 10 and 1 μM, with a wash",nonexistent
same,dark toxicity to S. aureus (killing),"[7]; 100 μM, 10 min, 0 J/cm^2",99%
same,PDI of S. aureus,"[7]; 100, 50, 25, 10 and 1 μM, with a wash, white light 4-8 J/cm2",fluence-dependent loss of viability
same,toxicity to L929 mammalian cells at fluences used for PDI of pathogens,[8],not killed
C[N+]1(C)Cc2c(c3c4ccc5c6c7c(c8c9ccc%10c%11c%12c%13c(c2c2c3c3c4c5c4c6c8c5c9c%10c%12c6c(c%132)c3c4c56)C2C[N+](C)(C)CC%112)C[N+](C)(C)C7)C1 (stereo not drawn) [CI3],PDT activity against P. aeruginosa,[1]; 10 min,effectively killed
same,PDT activity against C. albicans,[2]; 10 min,effectively killed
same,relative effectiveness in killing C. albicans,"[2]; 10 min, with a wash, white light",slightly more effective than CI2
same,Kow (octanol-water partition constant),[4],0.37
same,LogKow,[4],−0.43
same,change of E. coli killing in the presence of serum versus no serum,"[5]; 10 min, 10% FBS, with a wash",about 1 log
same,PDT activity against E. coli,[5]; 10 min,effectively killed
same,killing of E. coli,"[5]; with a wash, 2 J/cm^2 white light",6 logs
same,PDT activity against S. aureus,[6]; 1 μM,effectively killed
same,light sufficient to kill 4-5 logs of S. aureus,"[6]; 1 μM, with a wash, white light",1 J/cm^2
same,toxicity to L929 mammalian cells at fluences used for PDI of pathogens,[8],not killed
"Cc1cc2nc3ccc(N(C)C)cc3[s+]c2cc1N.[Cl-] [TBO, toluidine blue O, reference compound]",killing of P. aeruginosa,[1]; [9],≤ 90%
same,killing of P. aeruginosa,[1]; [10],less than 1 log
same,killing of C. albicans,[2]; [9],≤ 90%
same,killing of C. albicans,[2]; [10],less than 1 log
same,PDI of E. coli in the presence of serum,"[5]; 10 min, 10% FBS, with a wash, red light",almost ineffective
same,killing of E. coli,[5]; [9],≤ 90%
same,killing of S. aureus,"[6]; 1 μM, 10 min incubation, up to 16 J/cm2 of red light",≤ 90%
same,killing of S. aureus,"[6]; 1 μM, same fluence as for the fullerenes, presence or absence of serum",less than 1 log
same,dark toxicity toward L929 cells (killing),"[8]; 10% FBS, with a wash",little dark toxicity
same,fluence at which the limit of the viability assay was reached (L929),"[8]; 10% FBS, with a wash, red light",80 J/cm^2
same,additional phototoxicity toward L929 cells,"[8]; 10% FBS, with a wash, white or red light up to 120 J/cm^2",pronounced light-dependent toxicity
